Laboratory results published in PubChem BioAssay AID1645867 (Buhrlage Lab, Dana-Farber Cancer Institute and Novartis …, 2021).
pIC50: −log10 of the molar value. Activity calls are given as the source filed them. No rule for the calls is given here.

The compounds below were run against Ubiquitin carboxyl-terminal hydrolase isozyme L1 (Homo sapiens) (UniProt P09936) (assay: biochemical concentration-response of UCH-L1 DUB inhibitors, hit verification (AID 1645867)). Conditions: recombinant UCHL1 deubiquitinase activity assay.
Sequence of Ubiquitin carboxyl-terminal hydrolase isozyme L1 (Homo sapiens) (P09936 whole entry, looked up): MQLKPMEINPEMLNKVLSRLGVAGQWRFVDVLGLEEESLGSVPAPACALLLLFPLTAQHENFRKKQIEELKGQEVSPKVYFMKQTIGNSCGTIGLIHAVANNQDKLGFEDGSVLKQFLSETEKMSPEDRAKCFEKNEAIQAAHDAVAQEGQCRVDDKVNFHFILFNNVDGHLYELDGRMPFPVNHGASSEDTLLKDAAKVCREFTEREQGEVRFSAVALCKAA
In the case of Cc1c(Cl)ccc2sc(N3CCN(C(=O)c4ccn(C)n4)CC3)nc12, the IC50 was > 25 µM (inactive). In the case of CC1OC2CC(=O)OC2C2=C1C(=O)c1c(O)cccc1C2=O (stereo not drawn), the IC50 was > 25 µM (inactive). For CCOc1ccc(-c2nnc(NC(=O)C3CCN(S(=O)(=O)c4ccc5c(c4)CCC5)CC3)o2)cc1, the IC50 was > 25 µM (inactive). COc1ccc(NC(=O)[C@H](C)NC(=O)c2cc3c(OC)cccc3[nH]2)cc1Cl was tested, and the IC50 was > 25 µM (inactive). For O=C(c1ccc2cc[nH]c2c1)N1CCC(Nc2cccnc2)C1 (stereo not drawn), the IC50 was > 25 µM (inactive). Cc1nc(S(=O)(=O)NC[C@@]23CCC[C@H]2N(C)C(=O)CC3)cn1C was tested, and the IC50 was > 25 µM (inactive). For CC(C)(C)n1ncc2c(=O)n(CC(=O)N3CCCc4ccccc43)cnc21, the IC50 was > 25 µM (inactive). In the case of COc1cccc(-n2cnc3cc(C(=O)NCCc4ccccc4)ccc3c2=O)c1, the IC50 was > 25 µM (inactive). In the case of O=C(CCCCn1c(=O)[nH]c2ccccc2c1=O)Nc1cccc(Cl)c1, the IC50 was > 25 µM (inactive). Cc1ccc(S(=O)(=O)NCc2ccc(C(=O)NCCc3ccc(S(N)(=O)=O)cc3)cc2)cc1 was tested, and the IC50 was > 25 µM (inactive). For Cc1cc(NC(=O)c2cc(-c3cccnc3)n[nH]2)ccc1Br, the IC50 was > 25 µM (inactive). Compound O=C(NC1(O)C(=O)c2ccccc2C1=O)c1cccc2c1-c1ccccc1C2=O has a pIC50 of 4.81. Cc1nc(-c2ccccn2)sc1C(=O)/C=C/c1ccccc1 was tested, and the IC50 was > 25 µM (inactive). For O=C1CC(c2ccc(F)cc2)CC2=C1C(c1cccc([N+](=O)[O-])c1)Nc1ccccc1N2 (stereo not drawn), the IC50 was > 25 µM (inactive). O=C(C1CCCC1)N1CCC(c2nc3c(nnn3Cc3ccccc3Cl)c(=O)[nH]2)CC1 was tested, and the IC50 was > 25 µM (inactive). Compound CC(C)CC1NC(=O)C2CCCN2C1=O (stereo not drawn) has a pIC50 of 4.62. In the case of Cc1ccc(N(CC(=O)N2CCCc3ccccc32)S(=O)(=O)c2ccc3c(c2)OCCO3)cc1, the IC50 was > 25 µM (inactive). Cc1cccc(NC(=O)Cn2cnc(-c3noc(-c4ccccc4)n3)c2)c1C was tested, and the IC50 was > 25 µM (inactive). O=C(CSc1ccc2nnc(-c3cccc(F)c3)n2n1)N1CCCc2ccccc21 was tested, and the IC50 was > 25 µM (inactive). O=C(CSc1nnc(-c2cccnc2)n1-c1ccccc1)c1cccc([N+](=O)[O-])c1 was tested, and the IC50 was > 25 µM (inactive). For CCC(Sc1cccc(NC(=O)C2CCCCC2)c1)C(=O)Nc1cc([N+](=O)[O-])ccc1C (stereo not drawn), the IC50 was > 25 µM (inactive). For CC1(C)Cc2nc(N3CCCC3)c(C#N)cc2CS1, the IC50 was > 25 µM (inactive). In the case of Cc1ccc(NC(=O)c2cc(-c3ccccn3)nc3c(Cl)cccc23)nc1, the IC50 was > 25 µM (inactive). In the case of Cn1nc(Cl)c(Cl)c1Oc1ccc(S(=O)(=O)Nc2ccc(Oc3ccc(C(F)(F)F)cn3)c(Cl)c2)cc1, the IC50 was > 25 µM (inactive). In the case of CCOc1ccc(C2/C(=C(\O)c3ccccc3)C(=O)C(=O)N2c2nc3ccc(F)cc3s2)cc1 (stereo not drawn), the IC50 was > 25 µM (inactive). In the case of Cc1ccc(-n2cc(C(=O)NCCCc3ccccc3)nn2)cc1, the IC50 was > 25 µM (inactive). For O=C(/C=C/c1ccc(Cl)cc1)N(Cc1ccccc1)C1CCS(=O)(=O)C1 (stereo not drawn), the IC50 was > 25 µM (inactive). With CCN(CC)Cc1ccc(-c2nnc(-c3cnc4onc(C)c4c3)o2)o1 the IC50 was > 25 µM (inactive). With CCN1C(=O)c2ccccc2C(=O)[C@@]2(C)CN(C(=O)c3ccccc3)C[C@@H]12 the IC50 was > 25 µM (inactive). Cc1cc(C(=O)NC2(O)C(=O)c3ccccc3C2=O)n(C)n1 was tested, and the pIC50 was 4.69. In the case of Cc1ccc2nc(CCc3ccc(NS(=O)(=O)c4ccc(F)c(Cl)c4)cc3)[nH]c2c1, the IC50 was > 25 µM (inactive). With CCc1ccc(NC(=O)Cc2nnc3cc(-c4nc(C)no4)ccn23)cc1 the IC50 was > 25 µM (inactive). In the case of COc1ccc(-c2noc(CN3CCCC3c3cnn(C)c3)n2)cc1 (stereo not drawn), the IC50 was > 25 µM (inactive). With O=C(NC1CC1)c1ccc(OCC2CCCN(C(=O)c3ccccc3)C2)cc1 (stereo not drawn) the IC50 was > 25 µM (inactive). In the case of O=C(Nc1c(C(=O)N2CCCCCC2)oc2ccccc12)C1CCCCC1, the IC50 was > 25 µM (inactive). In the case of Cc1ccc2[nH]c(=O)c(-c3nc4ccc(C)cn4c3NCc3ccc(F)cc3)cc2c1, the IC50 was > 25 µM (inactive). O=c1c2cc(Br)ccc2[nH]c(=S)n1Cc1cccnc1 was tested, and the IC50 was > 25 µM (inactive). Cc1cccc(CCN2C(=O)CCc3c(C)nc(C4CCCNC4)nc32)c1 (stereo not drawn) was tested, and the IC50 was > 25 µM (inactive). With COc1cccc2c1NC(=O)C21CCN(C(=O)Nc2cccc3ccccc23)CC1 the IC50 was > 25 µM (inactive). O=C(Nc1nc2ccccc2s1)C1CC(=O)N(c2ccccc2)C1 (stereo not drawn) was tested, and the IC50 was > 25 µM (inactive). O=C(c1ccc(Cl)cc1)N(c1ccccn1)C1CCCCC1 was tested, and the IC50 was > 25 µM (inactive). For Cc1ccc(Cn2c(=O)c(C#N)c3n(c2=O)CCC3)cc1, the IC50 was > 25 µM (inactive). Cc1nc(C2COCCN2C(=O)c2cc(C(C)(C)C)[nH]n2)cc(=O)[nH]1 (stereo not drawn) was tested, and the IC50 was > 25 µM (inactive). Cc1oc2cc3oc(=O)c(CCC(=O)N4CC[C@@]5(O)CCCC[C@H]5C4)c(C)c3cc2c1C was tested, and the IC50 was > 25 µM (inactive). For Cc1nn(-c2ccc(Cl)cc2)c2[nH]c(=O)c(CNc3ccc4c(c3)OCCO4)cc12, the IC50 was > 25 µM (inactive). For Cc1cc(C)c(NC(=O)Cn2c(SCc3cccc(F)c3)nc3cccnc32)c(C)c1, the IC50 was > 25 µM (inactive). With FC(F)(F)c1ccc(Nc2nnnc3ccccc23)cc1 the IC50 was > 25 µM (inactive). With O=C(Cn1nnc2ccccc21)Nc1nc(-c2ccc3c(c2)CCN3C(=O)c2ccccc2F)cs1 the IC50 was > 25 µM (inactive). In the case of COc1ccc(-c2noc(-c3nnn(CC(=O)Nc4ccc(OC)cc4OC)c3N)n2)cc1, the IC50 was > 25 µM (inactive). With CCC(C)Nc1ncnc2c1CN(C1CCCNCC1)C(=O)CN2C (stereo not drawn) the IC50 was > 25 µM (inactive). In the case of N#Cc1ccc(COC(=O)C(O)(c2ccccc2)c2ccccc2)cc1, the IC50 was > 25 µM (inactive). For COc1cc(O)c2c(O)c3c(cc2c1)CC(C)OC3=O (stereo not drawn), the IC50 was > 25 µM (inactive). With CC(OC(=O)c1cccc(N(C)C)c1)C(=O)Nc1ncc(Cl)cc1Cl (stereo not drawn) the IC50 was > 25 µM (inactive). For CC1=C(C)C(c2c(-c3ccc(C)cc3)[nH]c3ccccc23)N(C(C)(C)C)C1=O (stereo not drawn), the IC50 was > 25 µM (inactive). With O=C(CCCn1c(=O)c2ccccc2n(CC(=O)NCc2ccccc2Cl)c1=O)NCc1ccc2c(c1)OCO2 the IC50 was > 25 µM (inactive). For CC1O[C@@H](c2ccc3c(c2O)C(=O)C2=C(C3=O)[C@@]3(O)C(=O)C(O)[C@](C)(O)C[C@@]3(O)C=C2)CC[C@@H]1OC(=O)/C=C/C=C/C=C/[C@@H]1O[C@@](C)(C(=O)O)O[C@H]1C (stereo partly drawn), the pIC50 was 5.34. In the case of Cc1nn(-c2ccccc2)c(C)c1S(=O)(=O)N1CCN(c2ccccn2)CC1, the IC50 was > 25 µM (inactive). With COc1cc(OC)c(NC(=O)c2cc(-c3ccccn3)n[nH]2)cc1Cl the IC50 was > 25 µM (inactive). With O=C(OCC(=O)N1CCOCC1)c1ccccc1OCc1ccccc1Cl the IC50 was > 25 µM (inactive). With CCOc1ccc(CC(=O)Nc2ccc(-c3cn4cccnc4n3)cc2)cc1 the IC50 was > 25 µM (inactive). For O=C(O)C1C(C(=O)Nc2ccccc2)C2(c3ccccc3)C(=O)C1(c1ccccc1)C(c1ccccc1)=C2c1ccccc1 (stereo not drawn), the IC50 was > 25 µM (inactive). For CC1=C(O)C(=O)C=C2C1=CC=C1[C@@]2(C)CC[C@@]2(C)[C@@H]3C[C@](C)(C(=O)O)CC[C@]3(C)CC[C@]12C, the IC50 was > 25 µM (inactive). In the case of CCOC(=O)c1ccc(Oc2sccc2[N+](=O)[O-])cc1, the IC50 was > 25 µM (inactive). COc1cc(Cl)c(NC(=O)c2cc(-c3ccccn3)n[nH]2)c(OC)c1 was tested, and the IC50 was > 25 µM (inactive). For Fc1ccc(NCc2nc3ccccc3n2Cc2ccccc2)cc1, the IC50 was > 25 µM (inactive). In the case of CCCC1(c2ccccc2)NC(=O)N(Cc2ccc(Cl)cc2)C1=O (stereo not drawn), the IC50 was > 25 µM (inactive). CCOc1ccc2c(c1)c(=O)c(C(=O)c1ccccc1)cn2CC(=O)Nc1ccc(Cl)cc1 was tested, and the IC50 was > 25 µM (inactive). For N#Cc1cccc(C(=O)Nc2cccc(Oc3ccccc3)c2)c1, the IC50 was > 25 µM (inactive). In the case of Cc1nc(-c2ccccc2)n(Cc2ccc(F)cc2)c(=O)c1CCO, the IC50 was > 25 µM (inactive). Compound CC1OC2CC(O)C1(O)C1=C2C(O)=C(C(N)=O)C(=N)C1=O (stereo not drawn) has a pIC50 of 4.93. With Cc1ccc2c(c1)c(=O)c(C(=O)c1ccccc1)cn2CC(=O)Nc1ccc2c(c1)OCO2 the IC50 was > 25 µM (inactive). COc1cn(CC(=O)Nc2ccc(Cl)cc2)c(CSc2ccccc2)cc1=O was tested, and the IC50 was > 25 µM (inactive). In the case of CN(C)[C@@H]1C(=O)C(C(N)=O)=C(O)[C@@]2(O)C(=O)C3=C(O)c4c(O)cccc4[C@@](C)(O)[C@H]3C[C@@H]12, the IC50 was > 25 µM (inactive). In the case of O=c1c2cc(-c3ccccc3)nn2ccn1Cc1noc(CN2CCCCC2)n1, the IC50 was > 25 µM (inactive). With Fc1ccc(Nc2nc(CN3CCOCC3)nc3sc4c(c23)CCC4)cc1Cl the IC50 was > 25 µM (inactive). In the case of CSc1ncccc1C(=O)OCc1ccccc1, the IC50 was > 25 µM (inactive). With O=C(CCSc1nnnn1-c1ccccc1)Nc1cc(C(F)(F)F)ccc1Cl the IC50 was > 25 µM (inactive). CCc1cccc(C)c1NC(=O)Cn1nc2ccc(C(=O)NCc3ccccc3)cn2c1=O was tested, and the IC50 was > 25 µM (inactive). In the case of Cc1cc(C)c(NC(=O)Cn2c(=O)n(CCC(=O)NCc3ccc4c(c3)OCO4)c(=O)c3sccc32)c(C)c1, the IC50 was > 25 µM (inactive). In the case of Cc1ccc(/C=C/C(=O)c2oc3ccc(F)cc3c2C)cc1, the IC50 was > 25 µM (inactive). In the case of COc1ccc(Nc2nnc(Cc3ccc(Cl)cc3)c(=O)[nH]2)cc1, the IC50 was > 25 µM (inactive). Work on C=C/C(C)=C/[C@@]1(C)SC(=O)C(C)=C1O yielded a pIC50 of 5.23. c1ccc(-n2nnc(-c3noc(-c4ccc[nH]4)n3)c2-c2ccncc2)cc1 was tested, and the IC50 was > 25 µM (inactive). For CC[C@@H]1[C@@H](C)O[C@@](O)([C@@H](C)[C@H](O)[C@H](C)[C@H]2OC(=O)/C=C/C=C/[C@H](C)[C@@H]([C@@H](C)[C@@H](O)[C@H](C)[C@@]3(O)C[C@@H](O[C@H]4C[C@H](O)[C@H](O)[C@H](C)O4)[C@H](CC)[C@@H](C)O3)OC(=O)/C=C/C=C/[C@@H]2C)C[C@H]1O[C@H]1C[C@H](O)[C@H](O)[C@H](C)O1, the IC50 was > 25 µM (inactive). In the case of COc1cc(C2CC(=O)Nc3nc(-c4ccccc4)[nH]c(=O)c32)cc(OC)c1O (stereo not drawn), the IC50 was > 25 µM (inactive). For O=C(Nc1cccc(F)c1)N1C[C@@H]2c3nccn3-c3ccccc3[C@@H]2C1, the IC50 was > 25 µM (inactive). CC(C)=CCC(O)C1=CC(=O)c2c(O)ccc(O)c2C1=O (stereo not drawn) gave a pIC50 of 5.51. Cc1ccc(NC(=O)Nc2ccc(C)n(CC(=O)Nc3cccc(C)c3)c2=O)cc1 was tested, and the IC50 was > 25 µM (inactive).
